Reference: patent US10806785B2, “Immunomodulator compounds and methods of use” (Incyte Corporation, priority 2016, dated 2020)

The compounds below were run against PD-1/PD-L1 (Homo sapiens (Human), UniProt Q9NZQ7) (assay: PD-1/PD-L1 binding assay (HTRF)).
Experimental: The assays were conducted in a standard black 384-well polystyrene plate with a final volume of 20 μL. Inhibitors were first serially diluted in DMSO and then added to the plate wells before the addition of other reaction components. The final concentration of DMSO in the assay was 1%. The assays were carried out at 25° C. in the PBS buffer (pH 7.4) with 0.05% Tween-20 and 0.1% BSA. Recombinant human PD-L1 protein (19-238) with a His-tag at the C-terminus was purchased from AcroBiosystems (PD1-H5229). Recombinant human PD-1 protein (25-167) with Fc tag at the C-terminus was also purchased from AcroBiosystems (PD1-H5257). PD-L1 and PD-1 proteins were diluted in the assay buffer and 10 μL was added to the plate well. Plates were centrifuged and proteins were preincubated with inhibitors for 40 minutes. The incubation was followed by the addition of 10 μL of HTRF detection buffer supplemented with Europium cryptate-labeled anti-human IgG (PerkinElmer-AD0212) specific for Fc and anti-His antibody conjugated to SureLight®-Allophycocyanin (APC, PerkinElmer-AD0059H). After centrifugation, the plate was incubated at 25° C. for 60 min. before reading on a PHERAstar FS plate reader (665 nm/620 nm ratio). Final concentrations in the assay were […], 10 nM PD-L1, 1 nM europium anti-human IgG and 20 nM anti-His-Allophycocyanin. IC50 determination was performed by fitting the curve of percent control activity versus the log of the inhibitor concentration using the GraphPad Prism 5.0 software.

PD-1/PD-L1, sequence (Q9NZQ7 19-238): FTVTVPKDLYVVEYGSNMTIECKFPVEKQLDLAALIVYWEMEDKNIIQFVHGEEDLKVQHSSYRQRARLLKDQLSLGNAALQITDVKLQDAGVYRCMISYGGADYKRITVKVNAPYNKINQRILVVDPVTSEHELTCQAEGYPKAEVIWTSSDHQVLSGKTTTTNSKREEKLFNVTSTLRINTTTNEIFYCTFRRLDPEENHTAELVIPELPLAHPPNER

IC50, ≤ 10 nM:
Cc1c(NC(=O)c2nc3c(n2C)CCN(C)C3)cccc1-c1cccc(NC(=O)c2nc3c(n2C)CCN(CC24CCC(C(=O)O)(CC2)C4)C3)c1Cl [Example 119, 4-((2-((2-chloro-3′-(1,5-dimethyl-4,5,6,7-tetrahydro-1H-imidazo[4,5-c]pyridine-2-carboxamido)-2′-methyl-[1,1′-biphenyl]-3-yl)carbamoyl)-1-methyl-1,4,6,7-tetrahydro-5H-imidazo[4,5-c]pyridin-5-yl)methyl)bicyclo[2.2.1]heptane-1-carboxylic acid]
CCN1CCc2c(nc(C(=O)Nc3cccc(-c4cccc(NC(=O)c5nc6c(n5C)CCN(C5CCC(C)(C(=O)O)CC5)C6)c4C)c3Cl)n2C)C1 (stereo not shown) [Example 105, 4-(2-((2′-chloro-3′-(5-ethyl-1-methyl-4,5,6,7-tetrahydro-1H-imidazo[4,5-c]pyridine-2-carboxamido)-2-methyl-[1,1′-biphenyl]-3-yl)carbamoyl)-1-methyl-1,4,6,7-tetrahydro-5H-imidazo[4,5-c]pyridin-5-yl)-1-methylcyclohexane-1-carboxylic acid]
CN1CCc2c(nc(C(=O)Nc3cccc(-c4cccc(NC(=O)c5nc6c(n5C)CCN(CC57CCC(C(=O)O)(CC5)CC7)C6)c4Cl)c3Cl)n2C)C1 [Example 81, 4-((2-((2,2′-dichloro-3′-(1,5-dimethyl-4,5,6,7-tetrahydro-1H-imidazo[4,5-c]pyridine-2-carboxamido)-[1,1′-biphenyl]-3-yl)carbamoyl)-1-methyl-1,4,6,7-tetrahydro-5H-imidazo[4,5-c]pyridin-5-yl)methyl)bicyclo[2.2.2]octane-1-carboxylic acid]
CCN1CCc2c(nc(C(=O)Nc3cccc(-c4cccc(NC(=O)c5nc6c(n5C)CCN(CC[C@H]5CC[C@H](C(=O)O)CC5)C6)c4Cl)c3Cl)n2C)C1 [Example 86, trans-4-(2-(2-((2,2′-dichloro-3′-(5-ethyl-1-methyl-4,5,6,7-tetrahydro-1H-imidazo[4,5-c]pyridine-2-carboxamido)-[1,1′-biphenyl]-3-yl)carbamoyl)-1-methyl-1,4,6,7-tetrahydro-5H-imidazo[4,5-c]pyridin-5-yl)ethyl)cyclohexane-1-carboxylic acid]
Cc1c(NC(=O)c2nc3c(n2C)CCN(C)C3)cccc1-c1cccc(NC(=O)c2nc3c(n2C)CCN(C2CCC(C)(C(=O)O)CC2)C3)c1Cl (stereo not shown) [Example 118, 4-(2-((2-chloro-3′-(1,5-dimethyl-4,5,6,7-tetrahydro-1H-imidazo[4,5-c]pyridine-2-carboxamido)-2′-methyl-[1,1′-biphenyl]-3-yl)carbamoyl)-1-methyl-1,4,6,7-tetrahydro-5H-imidazo[4,5-c]pyridin-5-yl)-1-methylcyclohexane-1-carboxylic acid]
CCN1CCc2c(nc(C(=O)Nc3cccc(-c4cccc(NC(=O)c5nc6c(n5C)CCN(CC57CCC(C(=O)O)(CC5)C7)C6)c4Cl)c3Cl)n2C)C1 [Compound 176, 4-((2-(2,2′-dichloro-3′-(5-ethyl-1-methyl-4,5,6,7-tetrahydro-1H-imidazo[4,5-c]pyridine-2-carboxamido)biphenyl-3-ylcarbamoyl)-1-methyl-6,7-dihydro-1H-imidazo[4,5-c]pyridin-5(4H)-yl)methyl)bicyclo[2.2.1]heptane-1-carboxylic acid]
CCC1(C(=O)O)CCC(N2CCc3c(nc(C(=O)Nc4cccc(-c5cccc(NC(=O)c6nc7c(n6C)CCN(C)C7)c5Cl)c4Cl)n3C)C2)CC1 (stereo not shown) [Example 83, 4-(2-((2,2′-dichloro-3′-(1,5-dimethyl-4,5,6,7-tetrahydro-1H-imidazo[4,5-c]pyridine-2-carboxamido)-[1,1′-biphenyl]-3-yl)carbamoyl)-1-methyl-1,4,6,7-tetrahydro-5H-imidazo[4,5-c]pyridin-5-yl)-1-ethylcyclohexane-1-carboxylic acid]
Cc1c(NC(=O)c2nc3c(n2C)CCN(C)C3)cccc1-c1cccc(NC(=O)c2nc3c(n2C)CCN(CC[C@H]2CC[C@H](C(=O)O)CC2)C3)c1Cl [Example 115, trans-4-(2-(2-((2-chloro-3′-(1,5-dimethyl-4,5,6,7-tetrahydro-1H-imidazo[4,5-c]pyridine-2-carboxamido)-2′-methyl-[1,1′-biphenyl]-3-yl)carbamoyl)-1-methyl-1,4,6,7-tetrahydro-5H-imidazo[4,5-c]pyridin-5-yl)ethyl)cyclohexane-1-carboxylic acid]
Cc1c(NC(=O)c2cc(CN3CC[C@@H](O)C3)cn(C)c2=O)cccc1-c1cccc(NC(=O)c2nc3c(n2C)CCN(C[C@H](C)O)C3)c1Cl [Example 51, N-(2-chloro-3′-(5-(((R)-3-hydroxypyrrolidin-1-yl)methyl)-1-methyl-2-oxo-1,2-dihydropyridine-3-carboxamido)-2′-methylbiphenyl-3-yl)-5-((S)-2-hydroxypropyl)-1-methyl-4,5,6,7-tetrahydro-1H-imidazo[4,5-c]pyridine-2-carboxamide]
Cc1c(-c2nc3c(s2)CN(C(=O)CN(C)C)C3)cccc1-c1cccc(NC(=O)c2nc3c(n2C)CCN(C)C3)c1Cl [Example 53, N-(2-chloro-3′-(5-(2-(dimethylamino)acetyl)-5,6-dihydro-4H-pyrrolo[3,4-d]thiazol-2-yl)-2′-methylbiphenyl-3-yl)-1,5-dimethyl-4,5,6,7-tetrahydro-1H-imidazo[4,5-c]pyridine-2-carboxamide]
Cc1c(NC(=O)c2cc(CN3CC[C@@H](C(=O)O)C3)cn(C)c2=O)cccc1-c1cccc(NC(=O)c2nc3c(n2C)CCN(C)C3)c1Cl [Example 49, (R)-1-((5-(2′-chloro-3′-(1,5-dimethyl-4,5,6,7-tetrahydro-1H-imidazo[4,5-c]pyridine-2-carboxamido)-2-methylbiphenyl-3-ylcarbamoyl)-1-methyl-6-oxo-1,6-dihydropyridin-3-yl)methyl)pyrrolidine-3-carboxylic acid]
CN1CCc2c(nc(C(=O)Nc3cccc(-c4cccc(NC(=O)c5nc6c(n5C)CCN(C[C@H]5CC[C@H](C(=O)O)CC5)C6)c4Cl)c3C#N)n2C)C1 [Compound 149, trans-4-((2-((2-chloro-2′-cyano-3′-(1,5-dimethyl-4,5,6,7-tetrahydro-1H-imidazo[4,5-c]pyridine-2-carboxamido)-[1,1′-biphenyl]-3-yl)carbamoyl)-1-methyl-1,4,6,7-tetrahydro-5H-imidazo[4,5-c]pyridin-5-yl)methyl)cyclohexane-1-carboxylic acid]
CN1CCc2c(nc(C(=O)Nc3cccc(-c4cccc(NC(=O)c5nc6c(n5C)CCN(C[C@H]5CC[C@H](C(=O)O)CC5)C6)c4C#N)c3Cl)n2C)C1 [Compound 147, trans-4-((2-((2′-chloro-2-cyano-3′-(1,5-dimethyl-4,5,6,7-tetrahydro-1H-imidazo[4,5-c]pyridine-2-carboxamido)-[1,1′-biphenyl]-3-yl)carbamoyl)-1-methyl-1,4,6,7-tetrahydro-5H-imidazo[4,5-c]pyridin-5-yl)methyl)cyclohexane-1-carboxylic acid]
Cc1c(NC(=O)c2nc3c(n2C)CCN(C)C3)cccc1-c1cccc(NC(=O)c2nc3c(n2C)CCN(C[C@H]2CC[C@H](C(=O)O)CC2)C3)c1Cl [Example 116, trans-4-((2-((2-chloro-3′-(1,5-dimethyl-4,5,6,7-tetrahydro-1H-imidazo[4,5-c]pyridine-2-carboxamido)-2′-methyl-[1,1′-biphenyl]-3-yl)carbamoyl)-1-methyl-1,4,6,7-tetrahydro-5H-imidazo[4,5-c]pyridin-5-yl)methyl)cyclohexane-1-carboxylic acid]
CCN(C)CC(=O)N1Cc2nc(-c3cccc(-c4cccc(NC(=O)c5nc6c(n5C)CCN(CCC5CCC(C(=O)O)CC5)C6)c4Cl)c3Cl)oc2C1 (stereo not shown) [Compound 169, 4-(2-(2-((2,2′-dichloro-3′-(5-(N-ethyl-N-methylglycyl)-5,6-dihydro-4H-pyrrolo[3,4-d]oxazol-2-yl)-[1,1′-biphenyl]-3-yl)carbamoyl)-1-methyl-1,4,6,7-tetrahydro-5H-imidazo[4,5-c]pyridin-5-yl)ethyl)cyclohexane-1-carboxylic acid]
Cn1c(C(=O)Nc2cccc(-c3cccc(NC(=O)c4nc5c(n4C)CCN(C[C@H]4CC[C@H](C(=O)O)CC4)C5)c3Cl)c2Cl)nc2c1CCN(CCO)C2 [Example 65, trans-4-((2-((2,2′-dichloro-3′-(5-(2-hydroxyethyl)-1-methyl-4,5,6,7-tetrahydro-1H-imidazo[4,5-c]pyridine-2-carboxamido)-[1,1′-biphenyl]-3-yl)carbamoyl)-1-methyl-1,4,6,7-tetrahydro-5H-imidazo[4,5-c]pyridin-5-yl)methyl)cyclohexane-1-carboxylic acid]
